In patent US9328124B2, “BACE inhibitors” (Eli Lilly and Company, priority 2012, dated 2016):
Structures can show the parent of a compound that is named as a salt. Where two headings read alike, the source gives them in different places.

Assays:
[1] = biological target: native, endogenous murine BACE1 (Mus musculus (Mouse), UniProt P56818); assay: PDAPP primary neuronal assay (Abeta ELISA); format: cell-based; details: primary cortical neurons from PDAPP embryos
Description: For in vitro enzymatic and cellular assays, test compounds are prepared in DMSO to make up a 10 mM stock solution. […] A confirmatory whole cell assay is also run in primary neuronal cultures generated from PDAPP transgenic embryonic mice. […] After 2 days in vitro, culture media is replaced with serum free DMEM/F12 (1:1) containing B27 supplement and 2 μM (final) of Ara-C (Sigma, C1768). At day 5 in vitro, neurons are incubated at 37° C. for 24 h in the presence/absence of inhibitors (diluted in DMSO) at the desired concentration. At the end of the incubation, conditioned media are analyzed for evidence of beta-secretase activity, for example, by analysis of Abeta peptides. […] Both Abeta 1-40 and Abeta 1-42 ELISAs use biotinylated 3D6 as the reporting antibody. The concentration of Abeta released in the conditioned media following the compound treatment corresponds to the activity of BACE1 under such conditions.

human BACE1(1-460):Fc = human BACE1(1-460):Fc (Homo sapiens (Human), UniProt P56817); assay: BACE1 FRET assay; format: biochemical; details: purified recombinant human BACE1, FRET; Mean ± SEM
Sequence of human BACE1(1-460):Fc (P56817 22-460): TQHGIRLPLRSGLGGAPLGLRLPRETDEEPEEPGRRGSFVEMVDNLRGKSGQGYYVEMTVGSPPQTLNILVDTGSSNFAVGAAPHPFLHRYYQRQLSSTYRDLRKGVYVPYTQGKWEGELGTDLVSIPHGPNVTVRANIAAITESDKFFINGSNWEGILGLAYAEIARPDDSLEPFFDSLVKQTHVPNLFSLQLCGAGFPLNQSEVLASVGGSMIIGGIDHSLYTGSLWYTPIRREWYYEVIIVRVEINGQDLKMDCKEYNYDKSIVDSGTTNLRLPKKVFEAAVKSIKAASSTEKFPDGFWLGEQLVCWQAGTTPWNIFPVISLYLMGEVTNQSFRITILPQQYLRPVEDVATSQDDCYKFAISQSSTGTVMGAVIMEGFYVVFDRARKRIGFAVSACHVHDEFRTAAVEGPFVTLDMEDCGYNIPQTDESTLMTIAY
Description: For in vitro enzymatic and cellular assays, test compounds are prepared in DMSO to make up a 10 mM stock solution.
This fusion protein of BACE1(1-460) and human Fc, named huBACE1:Fc, is constructed into the pJB02 vector. Human BACE1(1-460):Fc (huBACE1:Fc) is transiently expressed in HEK293 cells. 250 μg cDNA of each construct is mixed with Fugene 6 and added to 1 liter HEK293 cells. Four days after the transfection, conditioned media are harvested for purification. huBACE1:Fc is purified by Protein A chromatography. The enzyme is stored at −80° C. in small aliquots.
Serial dilutions of test compounds are prepared as described above. Compounds are further diluted 20× in KH2PO4 buffer. Ten μL of each dilution is added to each well on row A to H of a corresponding low protein binding black plate containing the reaction mixture (25 μL of 50 mM KH2PO4, pH 4.6, 1 mM TRITON® X-100, 1 mg/mL Bovine Serum Albumin, and 15 μM of FRET substrate) (See Yang, et. al., J. Neurochemistry, 91(6) 1249-59 (2004)). The content is mixed well on a plate shaker for 10 minutes. […] The RFU of the mixture at time 0 is recorded at excitation wavelength 355 nm and emission wavelength 460 nm, after brief mixing on a plate shaker. […] The RFU at the end of incubation is recorded with the same excitation and emission settings used at time 0. […]

[2] = biological target: native endogenous human BACE1 (Homo sapiens (Human), UniProt P56817); assay: HEK293Swe whole cell assay (Abeta ELISA); format: cell-based; details: HEK293/APP751sw cells
Sequence of native endogenous human BACE1 (P56817 46-501): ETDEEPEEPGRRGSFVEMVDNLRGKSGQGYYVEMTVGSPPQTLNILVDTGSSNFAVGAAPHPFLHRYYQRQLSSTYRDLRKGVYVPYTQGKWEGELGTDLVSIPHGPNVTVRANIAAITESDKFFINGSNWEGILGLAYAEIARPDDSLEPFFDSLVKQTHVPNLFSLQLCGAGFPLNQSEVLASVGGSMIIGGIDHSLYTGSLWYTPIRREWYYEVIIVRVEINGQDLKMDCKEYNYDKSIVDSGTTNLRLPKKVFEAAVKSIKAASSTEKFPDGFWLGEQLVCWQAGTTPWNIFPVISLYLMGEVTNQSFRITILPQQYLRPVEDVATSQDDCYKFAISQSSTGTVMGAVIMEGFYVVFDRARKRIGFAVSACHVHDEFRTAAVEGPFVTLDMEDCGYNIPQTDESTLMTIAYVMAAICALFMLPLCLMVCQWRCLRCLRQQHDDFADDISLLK
Description: For in vitro enzymatic and cellular assays, test compounds are prepared in DMSO to make up a 10 mM stock solution. The stock solution is serially diluted in DMSO to obtain a ten-point dilution curve with final compound concentrations ranging from […] to 1 nM in a 96-well round-bottom plate before conducting the in vitro enzymatic and whole cell assays. […]
Cells (HEK293/APP751sw at 3.5×10^4 cells/well, containing 200 μL culture media, DMEM containing 10% FBS) are incubated at 37° C. for 4 to 24 h in the presence/absence of inhibitors (diluted in DMSO) at the desired concentration. At the end of the incubation, conditioned media are analyzed for evidence of beta-secretase activity, for example, by analysis of Abeta peptides. Total Abeta peptides (Abeta 1-x) are measured by a sandwich ELISA, using monoclonal 266 as a capture antibody and biotinylated 3D6 as reporting antibody. Alternatively, Abeta 1-40 and Abeta 1-42 peptides are measured by a sandwich ELISA, using monoclonal 2G3 as a capture antibody for Abeta 1-40, and monoclonal 21F12 as a capture antibody for Abeta 1-42. […]

[3] = biological target: BACE (the beta-secretase enzyme) (Mus musculus (Mouse), UniProt P56818); assay: In vivo inhibition of beta-secretase in PDAPP mice (brain Abeta 1-x); details: 3 hours, young female PDAPP mice, vs vehicle
Sequence of BACE (the beta-secretase enzyme) (P56818 46-501): as the sequence (P56817 46-501) above, with P6S, V162I, L165I, S180T, V182A, I340V, L393A, Q443H counted along it
Description: Several animal models, including mouse, rat, guinea pig, dog, and monkey, may be used to screen for inhibition of beta-secretase activity in vivo following compound treatment Animals used in this invention were transgenic PDAPP mice as described in Games et al., Nature 373, 523-527 (1995), which have been useful to analyze in vivo inhibition of Abeta production in the presence of inhibitory compounds. Two month old PDAPP mice are administered compound formulated in N-methylpyrolidone (Pharmasolve®) in water. Three hours following the administration of compound, animals are sacrificed, and brains are removed for analysis of Abeta fragments. (See Dovey, et al., Journal of Neurochemistry, 76, 173-181 (2001); and Johnson-Wood, et al., Proc. Natl. Acad. Sci. USA, 94, 1550-1555 (1997)).
For standard in vivo pharmacology studies, animals are dosed with various concentrations of compound and compared to a vehicle-treated control group dosed at the same time. At the end of the test period, animals are sacrificed and brain tissues are analyzed for the presence of Abeta peptides by specific sandwich ELISA assays. “Abeta 1-x peptide” as used herein refers to the sum of Abeta species that begin with residue 1 and end with a C-terminus greater than residue 28. This detects the majority of Abeta species and is often called “total Abeta”.
Significant and dose-responsive reduction of total Abeta after oral administration of the compound of Example 8 is consistent with a mechanism of BACE (the beta-secretase enzyme) inhibition in vivo. […] As such, compounds of the present invention are efficacious inhibitors of BACE.

[4] = Abeta 1-40, read-out: PDAPP Neuron A-beta (1-40) ELISA IC50
[5] = Abeta 1-42, read-out: PDAPP Neuron A-beta (1-42) ELISA IC50

Sequence of native, endogenous murine BACE1 (P56818 46-501): as the sequence (P56817 46-501) above, with P6S, V162I, L165I, S180T, V182A, I340V, L393A, Q443H counted along it

Row | Structure (SMILES) | IC50 [1, 4] [nM] | IC50 [1, 5] [nM] | IC50 (human BACE1(1-460):Fc) [nM] | IC50 ([2]; Abeta 1-40, read-out: HEK 293 Swe A-beta (1-40) ELISA IC50) [nM] | IC50 ([2]; Abeta 1-42, read-out: HEK 293 Swe A-beta (1-42) ELISA IC50) [nM] | Abeta 1-x peptide levels reduced in brain cortex ([3]; 10 mg/kg oral dose) | Abeta 1-x peptide levels reduced in brain hippocampus ([3]; 10 mg/kg oral dose) | Abeta 1-x peptide levels reduced in brain cortex ([3]; 30 mg/kg oral dose) [%] | Abeta 1-x peptide levels reduced in brain hippocampus ([3]; 30 mg/kg oral dose) [%]
1 | CC(C)(O)c1nc(N2C[C@H]3CSC(N)=N[C@@]3(c3cccnc3)C2)ncc1F [Example 15, 2-[2-[(4aR,7aS)-2-Amino-7a-(3-pyridyl)-4,4a,5,7-tetrahydropyrrolo[3,4-d][1,3]thiazin-6-yl]-5-fluoro-pyrimidin-4-yl]propan-2-ol hydrochloride] | 98.2 | 80.1 | 93.5 |  |  |  |  |  | 
2 | CC(C)(O)c1nc(N2C[C@H]3CSC(N)=N[C@@]3(c3cnccn3)C2)ncc1F.Cl [Example 8, 2-[2-[(4aR,7aR)-2-Amino-7a-pyrazin-2-yl-4,4a,5,7-tetrahydropyrrolo[3,4-d][1,3]thiazin-6-yl]-5-fluoro-pyrimidin-4-yl]propan-2-ol hydrochloride] | 455 | 412 | 105 | 242 | 395 | approximately 23% | approximately 19% | ~53 | ~46
3 | CC(C)(O)c1nc(N2C[C@H]3CSC(N)=N[C@@]3(c3ccc(F)cn3)C2)ncc1F [Example 12, 2-[2-[(4aR,7aR)-2-Amino-7a-(5-fluoro-2-pyridyl)-4,4a,5,7-tetrahydropyrrolo[3,4-d][1,3]thiazin-6-yl]-5-fluoro-pyrimidin-4-yl]propan-2-ol hydrochloride] | 109 | 83.1 |  |  |  |  |  |  | 
